{
  "source": "paper PMC7738869",
  "about": "“A novel STAT3 inhibitor W2014-S regresses human non-small cell lung cancer xenografts and sensitizes EGFR-TKI acquired resistance” (Theranostics, 2021)",
  "key": {"[1]": {"molecular_target": "full-length wild-type STAT3 (Homo sapiens, UniProt P40763)", "sequence (P40763 whole entry)": "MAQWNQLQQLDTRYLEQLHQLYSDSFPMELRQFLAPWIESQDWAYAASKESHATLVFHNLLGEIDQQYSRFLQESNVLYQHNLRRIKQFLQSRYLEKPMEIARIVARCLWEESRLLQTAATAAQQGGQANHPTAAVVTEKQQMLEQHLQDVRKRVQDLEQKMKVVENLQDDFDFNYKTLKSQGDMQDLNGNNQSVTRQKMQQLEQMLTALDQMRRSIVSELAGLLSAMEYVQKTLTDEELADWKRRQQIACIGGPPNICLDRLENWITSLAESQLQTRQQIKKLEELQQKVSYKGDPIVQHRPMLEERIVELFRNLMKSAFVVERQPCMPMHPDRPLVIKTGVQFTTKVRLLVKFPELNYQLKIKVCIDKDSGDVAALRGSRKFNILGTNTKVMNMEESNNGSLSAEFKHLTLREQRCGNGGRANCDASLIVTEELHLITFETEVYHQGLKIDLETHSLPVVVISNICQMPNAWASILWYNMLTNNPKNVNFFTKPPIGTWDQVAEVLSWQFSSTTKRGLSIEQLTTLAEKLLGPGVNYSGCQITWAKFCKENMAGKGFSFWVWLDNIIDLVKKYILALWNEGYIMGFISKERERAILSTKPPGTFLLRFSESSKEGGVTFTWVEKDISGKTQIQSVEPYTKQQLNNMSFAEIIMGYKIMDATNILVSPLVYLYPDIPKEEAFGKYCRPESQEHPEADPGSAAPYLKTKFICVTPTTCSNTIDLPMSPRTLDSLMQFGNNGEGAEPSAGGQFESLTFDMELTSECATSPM", "test": "Surface plasmon resonance analysis of binding to STAT3", "details": "SPR", "protocol": "Biacore 8K and Biacore Insight Evaluation software were used to analyze the interaction between the agents and the protein full-length wild-type STAT3 to detect the binding affinity. Purified STAT3 (100 μg/mL) without Tris and glycerin was injected onto the CM5 Chip (GE, USA) for immobilization. Several concentrations of W2014-S or W2014-R dissolved in running buffer (1×PBS with filtration, 0.01% DMSO) were flown over the chip to produce response signals. The kinetics and affinities were calculated by the Biacore Insight Evolution software, and the results were determined as the binding affinity (KD)."}, "A549 cells": {"tested_on": "A549 cells", "test": "Cell viability assay (CCK-8), A549", "type": "cell-based", "details": "Homo sapiens, A549, 72 h, read-out: IC50 cell proliferation, A549, 72 h", "protocol": "Cell proliferation was measured using the Cell Counting Kit-8 (CCK-8, B34304, Bimake, USA). A549 (2 × 10^3/100 μL/well), PC-9 (3 × 10^3/100 μL/well) or PC-9/GR cells (3 × 10^3/100 μL/well) were plated into each well of 96-well plates (Costar, USA). […] Then, 10 μL of CCK-8 was added to each well, and cells were incubated for 1-4 h until the color of untreated controls turned to orange. The absorbance (A) was measured by a microplate reader (FLUOstar Omega-ACU, USA) at test and reference wavelengths of 450 nm. The percentage of growth was calculated as Cell viability (%) = [A (Compound +) - A (Blank) ] / [A (Compound -) - A (Blank) ] × 100%. Cell viability meant proliferation of cells. Each experiment was done at least in triplicate, and thrice independently."}, "STAT1 and STAT5": {"tested_on": "STAT1 and STAT5", "test": "Western blot of STAT1 and STAT5 activation in A549 and PC-9 cells", "type": "cell-based, human", "protocol": "Cells or tumor tissue were lysed with RIPA buffer (Beyotime, Shanghai, China) supplemented with protease inhibitors (Beyotime, Shanghai, China) and phosphatase inhibitors (Bimake, USA). Lysates were denatured by heating for 5 min at 99 °C and loaded on 4-10% SDS-polyacrylamide gel electrophoresis. Then the proteins were transferred to polyvinylidene fluoride (PVDF) membranes (Millipore, USA). The membranes were blocked and probed with primary antibodies and secondary HPR-conjugated antibodies. At last the membranes were detected by chemiluminescence (Tanon, Shanghai, China). For co-immunoprecipitation experiments, 293T cells were plated and grew to about 80% confluency, then co-transfected with plasmids of HA-STAT3 and Flag-STAT3 using Lipofectamine 2000. After 24 h, cells were treated with different concentrations of W2014-S for following 24 h, and stimulated with IL-6 (100 ng/mL) for 1 h. Cells were lysed with IP RIPA buffer (Beyotime, Shanghai, China) supplemented with protease inhibitors (Beyotime, Shanghai, China) and phosphatase inhibitors (Bimake, America), and lysates were cultured with Anti-flag Affinity Gel (B23102, Bimake, USA) overnight at 4 ℃. The gel was washed by PBST for three times and added 1×loading buffer and denatured by heating for 5 min at 99 ℃. Then the proteins were resolved on SDS-PAGE, transferred to PVDF membranes and analysed with immunoblotting."}, "Pharmacokinetic study": {"test": "Pharmacokinetic study", "type": "in vivo, SD rats", "details": "for MRT inf: read-out: MRTINF_obs", "protocol": "W2014-S was given to SD rats (male, 230-260g, n = 6) by gavage and intravenous administration. The rats were fasted for 12 h before administration and remained fasting for 2 h. For oral gavage, W2014-S was dissolved in DMSO/0.5% HPMC (5/95, v/v/), and W2014-S was dissolved in DMSO/EtOH/PEG300/0.9% NaCl (5/5/40/50, v/v/v/v) for intravenous administration. The pharmacokinetic (PK) profiles were next evaluated in SD rats."}},
  "note": "Where “and” joins values, the source holds several entries; their conditions need not be identical. Equal values may be shown once. Read-outs that look alike come from different tables or passages of the source.",
  "data": [
    {"smiles": "C[C@H](Oc1ccc(-c2nc3nc(C4=CCN(C(=O)OC(C)(C)C)CC4)ccc3[nH]2)cc1)c1ccccc1", "note": "[W2014-S]", "values": [
      {"measurement": "Kd", "setting": "[1]", "result": 3.64, "unit": "µM"},
      {"measurement": "IC50", "setting": "A549 cells", "result": 890, "unit": "nM"},
      {"measurement": "STAT1 and STAT5 activation", "setting": "STAT1 and STAT5", "result": "no obvious effect"},
      {"measurement": "Concentration in rat plasma, individual animals 4-6", "setting": "Pharmacokinetic study; i.v. 3 mg/kg, 0.05 h, 3 mg/kg", "result": "335 ng/mL and 339 ng/mL"},
      {"measurement": "Concentration in rat plasma, individual animals 4-6", "setting": "Pharmacokinetic study; i.v. 3 mg/kg, 0.25 h, 3 mg/kg", "result": "145 ng/mL and 134 ng/mL"},
      {"measurement": "Concentration in rat plasma, individual animals 4-6", "setting": "Pharmacokinetic study; i.v. 3 mg/kg, 0.75 h, 3 mg/kg", "result": "66.9 ng/mL and 80.1 ng/mL"},
      {"measurement": "Concentration in rat plasma, individual animals 4-6", "setting": "Pharmacokinetic study; i.v. 3 mg/kg, 2.00 h, 3 mg/kg", "result": "17.6 ng/mL and 22.6 ng/mL"},
      {"measurement": "Concentration in rat plasma, individual animals 4-6", "setting": "Pharmacokinetic study; i.v. 3 mg/kg, 4.00 h, 3 mg/kg", "result": "3.60 ng/mL and 5.00 ng/mL"},
      {"measurement": "Concentration in rat plasma, individual animals 4-6", "setting": "Pharmacokinetic study; i.v. 3 mg/kg, 8.00 h, 3 mg/kg", "result": "1.10 ng/mL and 2.60 ng/mL and 2.20 ng/mL"},
      {"measurement": "Concentration in rat plasma, individual animals 4-6", "setting": "Pharmacokinetic study; i.v. 3 mg/kg, 24.0 h, 3 mg/kg", "result": "1.30 ng/mL and 1.20 ng/mL"},
      {"measurement": "concentration at 0.05 h", "setting": "Pharmacokinetic study; male, SD, rat, plasma, iv, 3 mg/kg, i.v. 3 mg/kg, 0.05 h, read-out: Concentration in rat plasma, individual animals 4-6", "result": 454, "unit": "ng/mL"},
      {"measurement": "concentration at 0.05 h", "setting": "Pharmacokinetic study; male, SD, rat, plasma, iv, 3 mg/kg, i.v. 3 mg/kg, 0.05 h, read-out: Concentration in rat plasma, mean", "result": 376, "unit": "ng/mL"},
      {"measurement": "concentration at 0.25 h", "setting": "Pharmacokinetic study; male, SD, rat, plasma, iv, 3 mg/kg, i.v. 3 mg/kg, 0.25 h, read-out: Concentration in rat plasma, individual animals 4-6", "result": 159, "unit": "ng/mL"},
      {"measurement": "concentration at 0.25 h", "setting": "Pharmacokinetic study; male, SD, rat, plasma, iv, 3 mg/kg, i.v. 3 mg/kg, 0.25 h, read-out: Concentration in rat plasma, mean", "result": 146, "unit": "ng/mL"},
      {"measurement": "concentration at 0.75 h", "setting": "Pharmacokinetic study; male, SD, rat, plasma, iv, 3 mg/kg, i.v. 3 mg/kg, 0.75 h, read-out: Concentration in rat plasma, individual animals 4-6", "result": 59.3, "unit": "ng/mL"},
      {"measurement": "concentration at 0.75 h", "setting": "Pharmacokinetic study; male, SD, rat, plasma, iv, 3 mg/kg, i.v. 3 mg/kg, 0.75 h, read-out: Concentration in rat plasma, mean", "result": 68.8, "unit": "ng/mL"},
      {"measurement": "concentration at 2 h", "setting": "Pharmacokinetic study; male, SD, rat, plasma, iv, 3 mg/kg, i.v. 3 mg/kg, 2.00 h, read-out: Concentration in rat plasma, individual animals 4-6", "result": 13.4, "unit": "ng/mL"},
      {"measurement": "concentration at 2 h", "setting": "Pharmacokinetic study; male, SD, rat, plasma, iv, 3 mg/kg, i.v. 3 mg/kg, 2.00 h, read-out: Concentration in rat plasma, mean", "result": 17.9, "unit": "ng/mL"},
      {"measurement": "concentration at 4 h", "setting": "Pharmacokinetic study; male, SD, rat, plasma, iv, 3 mg/kg, i.v. 3 mg/kg, 4.00 h, read-out: Concentration in rat plasma, individual animals 4-6", "result": 2.9, "unit": "ng/mL"},
      {"measurement": "concentration at 4 h", "setting": "Pharmacokinetic study; male, SD, rat, plasma, iv, 3 mg/kg, i.v. 3 mg/kg, 4.00 h, read-out: Concentration in rat plasma, mean", "result": 3.83, "unit": "ng/mL"},
      {"measurement": "concentration at 8 h", "setting": "Pharmacokinetic study; male, SD, rat, plasma, iv, 3 mg/kg, i.v. 3 mg/kg, 8.00 h", "result": 1.97, "unit": "ng/mL"},
      {"measurement": "concentration at 24 h", "setting": "Pharmacokinetic study; male, SD, rat, plasma, iv, 3 mg/kg, i.v. 3 mg/kg, 24.0 h, read-out: Concentration in rat plasma, individual animals 4-6", "result": 0.9, "unit": "ng/mL"},
      {"measurement": "concentration at 24 h", "setting": "Pharmacokinetic study; male, SD, rat, plasma, iv, 3 mg/kg, i.v. 3 mg/kg, 24.0 h, read-out: Concentration in rat plasma, mean", "result": 1.13, "unit": "ng/mL"},
      {"measurement": "half-life", "setting": "Pharmacokinetic study; male, SD, rat, plasma, iv, 3 mg/kg, i.v. 3 mg/kg, individual animals 4-6", "result": 918, "unit": "min"},
      {"measurement": "AUC(0-inf)", "setting": "Pharmacokinetic study; male, SD, rat, plasma, iv, 3 mg/kg, rat, i.v. 3 mg/kg, individual animals 4-6, read-out: AUCINF_obs", "result": 228, "unit": "ng·h/mL"},
      {"measurement": "AUC(0-t)", "setting": "Pharmacokinetic study; male, SD, rat, plasma, iv, 3 mg/kg, rat, i.v. 3 mg/kg, individual animals 4-6, read-out: AUClast", "result": 208, "unit": "ng·h/mL"},
      {"measurement": "clearance", "setting": "Pharmacokinetic study; male, SD, rat, plasma, iv, 3 mg/kg, rat, i.v. 3 mg/kg, individual animals 4-6, read-out: CL_obs", "result": 219, "unit": "mL/min/kg"},
      {"measurement": "MRT inf", "setting": "Pharmacokinetic study; male, SD, rat, plasma, iv, 3 mg/kg, rat, i.v. 3 mg/kg, individual animals 4-6", "result": 5.79, "unit": "h"},
      {"measurement": "MRT inf", "setting": "Pharmacokinetic study; male, SD, rat, plasma, iv, 3 mg/kg, rat, i.v. 3 mg/kg, mean", "result": 6.3, "unit": "h"},
      {"measurement": "concentration at 0.25 h", "setting": "Pharmacokinetic study; male, SD, rat, plasma, po, 10 mg/kg, p.o. 10 mg/kg, 0.25 h, read-out: Concentration in rat plasma, mean", "result": 19.6, "unit": "ng/mL"},
      {"measurement": "concentration at 0.5 h", "setting": "Pharmacokinetic study; male, SD, rat, plasma, po, 10 mg/kg, p.o. 10 mg/kg, 0.50 h", "result": 22.5, "unit": "ng/mL"},
      {"measurement": "concentration at 1 h", "setting": "Pharmacokinetic study; male, SD, rat, plasma, po, 10 mg/kg, p.o. 10 mg/kg, 1.00 h", "result": 16.1, "unit": "ng/mL"},
      {"measurement": "concentration at 2 h", "setting": "Pharmacokinetic study; male, SD, rat, plasma, po, 10 mg/kg, p.o. 10 mg/kg, 2.00 h, read-out: Concentration in rat plasma, individual animals 1-3", "result": 5.7, "unit": "ng/mL"},
      {"measurement": "concentration at 2 h", "setting": "Pharmacokinetic study; male, SD, rat, plasma, po, 10 mg/kg, p.o. 10 mg/kg, 2.00 h, read-out: Concentration in rat plasma, mean", "result": 7.23, "unit": "ng/mL"},
      {"measurement": "concentration at 4 h", "setting": "Pharmacokinetic study; male, SD, rat, plasma, po, 10 mg/kg, p.o. 10 mg/kg, 4.00 h, read-out: Concentration in rat plasma, mean", "result": 7.83, "unit": "ng/mL"},
      {"measurement": "concentration at 8 h", "setting": "Pharmacokinetic study; male, SD, rat, plasma, po, 10 mg/kg, p.o. 10 mg/kg, 8.00 h", "result": 0.633, "unit": "ng/mL"}
    ]}
  ]
}
